Measurements reported in patent publication US5916872A, “Cyclic peptides having broad spectrum antimicrobial activity” (IntraBiotics Pharmaceuticals, Inc., priority 1996, dated 1999).
Values after ≈ are worked out from the molar mass of the structure shown. Positions of bridges follow the written chain, without caps; N, C: chain ends. Residues, ends and D or L forms follow the SMILES beside them.

Key:
Format in all cases: cell-based
[1] = tested on: MRSA (methicillin resistant Staphylococcus aureus); assay: Modified NCCLS minimum inhibitory concentration (MIC) assay; conditions: Table 4
Source text: (§1) Microorganisms: Escherichia coli ML-35p and vancomycin-resistant Enterococcus faecium (VRE) were obtained from Dr. Robert Lehrer (UCLA, see also, Lehrer et al., 1988, J. Immunol. Methods 108:153) and Dr. Gary Schoolnik (Stanford), respectively. Pseudomonas aeruginosa (ATCC 9027), Candida albicans (ATCC 1023), and methicillin resistant Staphylococcus aureus (ATCC 33591) were obtained from the American Type Culture Collection, Rockville, Md.
(§2) 8.3 Modified NCCLS Minimum Inhibitory Concentration (MIC) Assay
(§3) The National Committee for Clinical Standards (NCCLS) requires that test compounds be prepared as stock solutions in Meuller-Hinton Broth ("MHB") at 512 μg/mL. The stock solutions are serially diluted (two-fold) in medium and each serial dilution added 1:1 to medium containing 1×10^6 CFU/mL bacteria (National Committee on Clinical Laboratory Standards, December 1994, "Performance Standards for Antimicrobial Susceptibility Testing," NCCLS Document M100-S5 Vol. 14, No. 16; Methods for Dilution Antimicrobial Susceptibility Test for Bacteria that Grow Aerobically, 3d Ed., Approved Standard M7-A3, National Committee for Clinical Standards, Villanova, Pa.).
(§4) Thus, following the NCCLS protocol would result in serial two-fold dilutions containing less peptide than calculated, yielding erroneously high MIC values.
(§5) To overcome this problem, the following modified NCCLS assay is the preferred method for determining MICs of the cyclic peptides of the invention.
(§6) Preparation of MIC assay plates:
(§7) 1. Prepare a fresh overnight culture of test organism in Meuller-Hinton broth (MHB; Becton-Dickinson, Cockysville, Md., BB2 #11443).
(§8) 2. Dilute the culture to approximately 4×10^5 CFUs/mL with fresh MHB and dispense 100 μL aliquots into each well of a sterile 96-well microtiter plate.
(§9) 3. From the peptide stock solution, prepare serial two-fold dilutions (from 1280 μg/mL to 0.625 μg/mL) using acetic acid (0.01%) as a diluent, or, for peptide concentrations lower than 50 μg/mL, sodium acetate (10 mM, pH 5) containing Human Serum Albumin (HSA; 0.1% w/v) as a diluent.
(§10) 4. Dispense triplicate aliquots (11 μL) of each serial dilution into the wells of the microtiter plate.
(§11) 5. Incubate the plate for 16-18 hours, without aeration, at 37° C. (bacteria) or 30° C. (yeast).
(§12) 6. Examine the plates and evaluate each well for turbidity (cell growth). Often, MRSA will settle out and form a pellet at the bottom of the well. MRSA can be evaluated by placing the microtiter plate on a stand and examining the bottom of the well using a tilted mirror.
(§13) 7. The minimum inhibitory concentration (MIC) is defined as the lowest peptide concentration that inhibits all visible growth. If the MIC values for each of the triplicate samples differ, the MIC is obtained by averaging the results of the three samples. […]

Pseudomonas aeruginosa = assay: as above; conditions: Table 4; Psa is Pseudomonas aeruginosa
Source text: as §1, §2, §3, §4, §5, §6, §7, §8, §9, §10, §11, §12, §13

[2] = tested on: MRSA (methicillin resistant Staphylococcus aureus); assay: Kinetic bactericidal assay; conditions: 2 μg/mL peptide, from an initial value of 3.3 × 10^5 CFUs
Source text: as §1
8.4 Kinetic Bactericidal Assay
The following assay is used to determine the rate at which a cyclic peptide kills a target microorganism, as well as to determine if a cyclic peptide is bactericidal or bacteriostatic.
1. Dispense 200 μL of log-phase cells in LTM (4×10^5 CFUs/mL) into each well of a 96-well microtiter plate solution.
2. At time T=0 minutes, add 22 μL of 1280 μg/mL peptide to well A1 and mix by triturating 3 times.
3. Wait 30 seconds and add 22 μL of a second concentration of peptide the to the next well (A2) and mix by triturating 3 times.
4. Repeat the process, staggering each peptide addition by 30 seconds, until all concentrations of peptide have been added. Typically, 4-fold serial dilutions of stock peptide (i.e., 1280, 320, 80, 20 and 5 μg/mL peptide diluted 1:10 into each well) produces good comparative kill curves. Add 22 μL of 0.01% acetic acid to one well as a control.
5. At time T=15 minutes, mix well A1 by triturating 3 times and transfer 20 μL to an empty sterile petri dish (100 mm×15 mm).
6. Quickly add 20 mL of tempered (50° C.) TSA and gently swirl plate to mix.
7. Repeat steps 5-6 until all peptide concentrations have been plated.
8. For the control well, dilute the sample 1:100 with LTM and plate 50 μL of the dilution to obtain an accurate determinations of CFUs.
9. After the agar has solidified, invert the plates and incubate at 37° C. (bacteria) 30° C. (yeast) for 18-24 hours.
10. Repeat steps 5-9 for all peptide concentrations and control samples at times T=30, 60, 120, and 240 minutes.
11. Count the number of CFUs per plate and estimate the reduction in CFUs for each peptide concentration. In order to assess an effect using this assay, the peptide must reduce the CFUs by at least one log (i.e., at least 800 CFUs per plate). Although such numbers are higher than recommended for accuracy (30-300 CFUs/plate), log-order changes in recoverable CFUs indicate significant bacteriocidal efficacy.
12. To obtain comparative kill curves, plot the log of fractional survival versus peptide concentration.

Molecule | MIC Values MRSA [1] | MIC Values Psa (Pseudomonas aeruginosa) | MRSA Kill Kinetics 15 min [2] | MRSA Kill Kinetics 120 min [2]
CC(C)C[C@@H]1NC(=O)[C@H](CCCNC(=N)N)NC(=O)CNC(=O)CNC(=O)[C@H](CCCNC(=N)N)NC(=O)[C@H](CCCNC(=N)N)NC(=O)CNC(=O)[C@H](C(C)C)NC(=O)[C@@H]2CSSC[C@H](NC1=O)C(=O)N[C@@H](Cc1ccc(O)cc1)C(=O)N[C@H]1CSSC[C@H](NC(=O)[C@H](Cc3ccccc3)NC(=O)[C@H](CCCNC(=N)N)NC(=O)[C@H](CCCNC(=N)N)NC(=O)[C@H](CCCNC(=N)N)NC1=O)C(=O)N[C@@H](C(C)C)C(=O)N2 [cyclo(CYCRRRFCVCVGRRGGRL)] (cyclo(GGRLCYCRRRFCVCVGRR); disulfide 5-14, 7-12) | 5.33 µg/mL (≈ 2.49 µM) | 8 µg/mL (≈ 3.74 µM) | 1.2 log reduction | 1.17 log reduction
CC(C)C[C@@H]1NC(=O)[C@H](CCCNC(=N)N)NC(=O)[C@H](C(C)C)NC(=O)[C@@H]2CSSC[C@H](NC1=O)C(=O)N[C@@H](Cc1ccc(O)cc1)C(=O)N[C@H]1CSSC[C@H](NC(=O)[C@H](Cc3ccccc3)NC(=O)[C@H](CCCNC(=N)N)NC(=O)[C@H](CCCNC(=N)N)NC(=O)[C@H](CCCNC(=N)N)NC1=O)C(=O)N[C@@H](C(C)C)C(=O)N2 [cyclo(CYCRRRFCVCVRL)] (cyclo(CRRRFCVCVRLCY); disulfide 1-6, 8-12) | 16 µg/mL (≈ 9.67 µM) | 2.67 µg/mL (≈ 1.61 µM) |  | 
CC(C)C[C@@H]1NC(=O)[C@H](Cc2c[nH]c3ccccc23)NC(=O)[C@H](C(C)C)NC(=O)[C@@H]2CSSC[C@H](NC1=O)C(=O)N[C@@H](Cc1ccc(O)cc1)C(=O)N[C@H]1CSSC[C@H](NC(=O)[C@H](Cc3ccccc3)NC(=O)[C@H](CCCNC(=N)N)NC(=O)[C@H](CCCNC(=N)N)NC(=O)[C@H](CCCNC(=N)N)NC1=O)C(=O)N[C@@H](C(C)C)C(=O)N2 [cyclo(CYCRRRFCVCVWL)] (cyclo(CRRRFCVCVWLCY); disulfide 1-6, 8-12) | 4 µg/mL (≈ 2.37 µM) | > 32 µg/mL | 2.65 log reduction | 2.18 log reduction
CC(C)[C@@H]1NC(=O)[C@@H]2CSSC[C@H](NC(=O)[C@H](Cc3ccc(O)cc3)NC(=O)[C@H](Cc3c[nH]c4ccccc34)NC1=O)C(=O)N[C@@H](Cc1ccc(O)cc1)C(=O)N[C@H]1CSSC[C@H](NC(=O)[C@H](Cc3ccccc3)NC(=O)[C@H](CCCNC(=N)N)NC(=O)[C@H](CCCNC(=N)N)NC(=O)[C@H](CCCNC(=N)N)NC1=O)C(=O)N[C@@H](C(C)C)C(=O)N2 [cyco(CYCRRRFCVCVWY), cyclo(CYCRRRFCVCVWY)] (cyclo(CRRRFCVCVWYCY); disulfide 1-6, 8-12) | 8 µg/mL (≈ 4.61 µM) | 32 µg/mL (≈ 18.4 µM) |  | 
RGGRLCYCRRRFCVCVGR | 4 µg/mL | 0.5 µg/mL |  | 
RLCYCRRRFCVCV | 10.7 µg/mL | 2 µg/mL |  | 
RLCYCRRRFCVCVV [RLCYCRRRFCVCVV.dagger.] | 2 µg/mL | 4 µg/mL |  | 
WLCYCRRRFCVCV | 32 µg/mL | 13 µg/mL |  | 
WLCYCRRRFCVCV [WLCYCRRRFCVCV.dagger.] | 3.33 µg/mL | > 32 µg/mL | 2.12 log reduction | 2.89 log reduction
WLCYCRRRFCVCVGR | 32 µg/mL | 32 µg/mL | < 0.46 log reduction | < 0.46 log reduction
WLCYCRRRFCVCVGR [WLCYCRRRFCVCVGR.dagger.] |  |  | 1.79 log reduction | 2.26 log reduction
WYCYCRRRFCVCV | 43 µg/mL | 32 µg/mL |  | 
